We go through two compounds from ChEMBL document CHEMBL4330110, “Discovery of an isocoumarin analogue that modulates neuronal functions via neurotrophin receptor TrkB” (Bioorg Med Chem Lett, 2019).

Experiment [1] deals with T1, BDNF/NT-3 growth factors receptor (Homo sapiens, UniProt Q16620). Nature of the experiment: Agonist activity at EGFP-fused TrkB receptor (unknown origin) expressed in HEK293T cells assessed as increase in TrkB phosphorylation at Y705 residue at 1 uM after 10 to 15 mins by Western blot analysis. The class given is cell-based.
Target sequence in this assay (Q16620 32-822 limits assumed): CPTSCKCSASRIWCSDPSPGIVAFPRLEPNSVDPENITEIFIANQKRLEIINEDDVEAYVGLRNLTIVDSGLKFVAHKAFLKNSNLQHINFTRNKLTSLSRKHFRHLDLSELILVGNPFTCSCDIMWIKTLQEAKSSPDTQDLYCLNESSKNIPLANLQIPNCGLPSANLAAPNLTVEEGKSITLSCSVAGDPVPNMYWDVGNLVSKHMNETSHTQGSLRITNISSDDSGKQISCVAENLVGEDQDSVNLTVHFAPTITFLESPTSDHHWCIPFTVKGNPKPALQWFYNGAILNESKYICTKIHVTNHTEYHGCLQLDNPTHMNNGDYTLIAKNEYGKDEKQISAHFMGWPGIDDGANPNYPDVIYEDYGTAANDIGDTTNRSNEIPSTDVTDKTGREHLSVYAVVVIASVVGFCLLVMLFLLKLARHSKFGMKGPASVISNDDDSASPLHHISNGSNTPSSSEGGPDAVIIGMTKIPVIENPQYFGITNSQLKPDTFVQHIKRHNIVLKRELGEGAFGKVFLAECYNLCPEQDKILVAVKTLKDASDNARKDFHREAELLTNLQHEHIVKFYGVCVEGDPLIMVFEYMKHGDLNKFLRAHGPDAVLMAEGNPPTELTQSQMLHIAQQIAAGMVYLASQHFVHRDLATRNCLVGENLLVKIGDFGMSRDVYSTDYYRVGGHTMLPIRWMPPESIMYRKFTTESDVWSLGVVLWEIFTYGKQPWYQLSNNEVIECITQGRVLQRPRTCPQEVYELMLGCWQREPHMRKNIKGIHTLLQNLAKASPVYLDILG
For experiment [2], the target named is T1, BDNF/NT-3 growth factors receptor. Put plainly: Agonist activity at EGFP-fused TrkB receptor (unknown origin) expressed in HEK293T cells assessed as increase in TrkB phosphorylation at Y705 residue after 10 to 15 mins by Western blot analysis. The class given is cell-based.
Target sequence in this assay (Q16620 32-822 limits assumed): as above
For experiment [3], the target named is T2, High affinity nerve growth factor receptor (Homo sapiens, UniProt P04629). Put plainly: Agonist activity at RFP-fused TrkA receptor (unknown origin) expressed in HEK293T cells assessed as increase in TrkA phosphorylation at Y490 residue at 1 uM after 10 to 15 mins by Western blot analysis. In kind it is cell-based. (A western blot detects proteins with antibodies after separation by electrophoresis.)
Target sequence in this assay (P04629 33-796 limits assumed): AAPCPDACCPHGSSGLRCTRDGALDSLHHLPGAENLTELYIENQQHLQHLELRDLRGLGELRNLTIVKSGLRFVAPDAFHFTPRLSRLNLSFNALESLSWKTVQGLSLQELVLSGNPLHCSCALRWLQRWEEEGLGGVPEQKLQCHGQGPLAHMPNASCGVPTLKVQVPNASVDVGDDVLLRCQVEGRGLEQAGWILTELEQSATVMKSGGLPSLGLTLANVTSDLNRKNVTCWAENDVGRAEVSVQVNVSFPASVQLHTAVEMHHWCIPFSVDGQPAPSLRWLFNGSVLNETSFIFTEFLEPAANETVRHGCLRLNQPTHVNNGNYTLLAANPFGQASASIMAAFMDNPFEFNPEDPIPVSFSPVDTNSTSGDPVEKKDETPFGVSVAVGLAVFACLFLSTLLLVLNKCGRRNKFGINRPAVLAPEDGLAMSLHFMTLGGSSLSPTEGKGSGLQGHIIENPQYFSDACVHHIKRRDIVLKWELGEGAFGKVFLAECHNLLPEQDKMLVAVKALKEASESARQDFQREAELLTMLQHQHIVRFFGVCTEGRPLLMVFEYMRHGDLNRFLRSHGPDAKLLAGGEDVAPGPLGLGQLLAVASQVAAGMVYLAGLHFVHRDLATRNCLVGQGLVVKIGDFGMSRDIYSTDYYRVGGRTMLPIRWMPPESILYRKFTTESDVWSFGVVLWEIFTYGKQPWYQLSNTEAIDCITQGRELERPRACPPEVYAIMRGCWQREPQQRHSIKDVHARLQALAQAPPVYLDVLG

For experiment [4], the target named is BDNF/NT-3 growth factors receptor (Mus musculus) (UniProt P15209). Nature of the experiment: Agonist activity at TrkB receptor in Swiss mouse primary cortical neurons assessed as increase in TrkB phosphorylation at Y705 residue after 15 mins by Western blot analysis.
BDNF/NT-3 growth factors receptor (Mus musculus), sequence (P15209 whole entry, the tested form may be a part): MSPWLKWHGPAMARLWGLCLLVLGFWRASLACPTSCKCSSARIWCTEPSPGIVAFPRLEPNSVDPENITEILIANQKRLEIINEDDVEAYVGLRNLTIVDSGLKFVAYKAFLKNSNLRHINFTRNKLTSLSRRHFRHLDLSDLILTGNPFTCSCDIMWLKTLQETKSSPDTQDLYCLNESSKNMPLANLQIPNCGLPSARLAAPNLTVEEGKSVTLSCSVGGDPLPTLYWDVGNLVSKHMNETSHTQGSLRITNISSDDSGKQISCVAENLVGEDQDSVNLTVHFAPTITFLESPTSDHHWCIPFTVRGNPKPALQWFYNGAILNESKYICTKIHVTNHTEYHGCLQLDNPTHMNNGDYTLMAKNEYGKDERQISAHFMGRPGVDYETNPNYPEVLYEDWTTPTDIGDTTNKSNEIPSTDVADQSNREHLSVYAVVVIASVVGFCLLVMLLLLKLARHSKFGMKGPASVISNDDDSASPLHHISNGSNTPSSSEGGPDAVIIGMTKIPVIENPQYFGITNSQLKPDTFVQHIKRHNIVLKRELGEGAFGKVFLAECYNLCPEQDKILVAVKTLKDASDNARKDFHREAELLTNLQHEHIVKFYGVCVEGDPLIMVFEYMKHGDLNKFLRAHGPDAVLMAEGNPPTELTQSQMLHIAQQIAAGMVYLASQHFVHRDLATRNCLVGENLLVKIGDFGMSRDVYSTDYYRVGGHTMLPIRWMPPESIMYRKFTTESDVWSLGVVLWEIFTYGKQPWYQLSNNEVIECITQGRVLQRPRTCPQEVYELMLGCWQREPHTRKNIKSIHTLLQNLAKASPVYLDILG
Experiment [5] addresses T1, BDNF/NT-3 growth factors receptor. Nature of the experiment: Agonist activity at EGFP-fused TrkB receptor (unknown origin) expressed in HEK293T cells after 6 hrs by luciferase reporter gene assay. In kind it is cell-based.
Target sequence in this assay (Q16620 whole entry, the tested form may be a part): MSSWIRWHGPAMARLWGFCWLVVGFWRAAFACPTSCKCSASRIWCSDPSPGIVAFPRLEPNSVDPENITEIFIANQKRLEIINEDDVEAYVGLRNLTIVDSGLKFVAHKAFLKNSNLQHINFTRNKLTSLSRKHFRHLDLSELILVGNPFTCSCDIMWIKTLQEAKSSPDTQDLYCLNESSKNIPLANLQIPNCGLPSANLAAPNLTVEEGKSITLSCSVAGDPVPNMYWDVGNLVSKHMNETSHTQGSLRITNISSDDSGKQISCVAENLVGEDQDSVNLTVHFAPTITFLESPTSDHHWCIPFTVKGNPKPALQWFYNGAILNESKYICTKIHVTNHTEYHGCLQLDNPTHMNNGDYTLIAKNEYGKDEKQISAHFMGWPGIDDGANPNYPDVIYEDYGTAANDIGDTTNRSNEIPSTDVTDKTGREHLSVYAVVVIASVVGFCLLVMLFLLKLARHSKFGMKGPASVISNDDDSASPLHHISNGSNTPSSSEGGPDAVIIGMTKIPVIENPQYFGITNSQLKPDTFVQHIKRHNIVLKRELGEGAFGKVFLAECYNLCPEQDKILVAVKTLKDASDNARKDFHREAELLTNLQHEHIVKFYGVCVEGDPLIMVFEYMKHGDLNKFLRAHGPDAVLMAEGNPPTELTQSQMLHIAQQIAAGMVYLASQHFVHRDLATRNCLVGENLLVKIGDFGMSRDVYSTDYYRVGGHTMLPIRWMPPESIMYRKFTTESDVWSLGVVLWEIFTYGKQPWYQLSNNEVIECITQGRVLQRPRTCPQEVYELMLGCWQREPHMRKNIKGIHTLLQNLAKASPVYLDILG
The target in experiment [6] is T2, High affinity nerve growth factor receptor. Nature of the experiment: Agonist activity at RFP-fused TrkA receptor (unknown origin) expressed in HEK293T cells after 6 hrs by luciferase reporter gene assay. In kind it is cell-based. (In general: In a reporter assay the amount or activity of a reporter protein is the signal.)
Target sequence in this assay (P04629 whole entry, the tested form may be a part): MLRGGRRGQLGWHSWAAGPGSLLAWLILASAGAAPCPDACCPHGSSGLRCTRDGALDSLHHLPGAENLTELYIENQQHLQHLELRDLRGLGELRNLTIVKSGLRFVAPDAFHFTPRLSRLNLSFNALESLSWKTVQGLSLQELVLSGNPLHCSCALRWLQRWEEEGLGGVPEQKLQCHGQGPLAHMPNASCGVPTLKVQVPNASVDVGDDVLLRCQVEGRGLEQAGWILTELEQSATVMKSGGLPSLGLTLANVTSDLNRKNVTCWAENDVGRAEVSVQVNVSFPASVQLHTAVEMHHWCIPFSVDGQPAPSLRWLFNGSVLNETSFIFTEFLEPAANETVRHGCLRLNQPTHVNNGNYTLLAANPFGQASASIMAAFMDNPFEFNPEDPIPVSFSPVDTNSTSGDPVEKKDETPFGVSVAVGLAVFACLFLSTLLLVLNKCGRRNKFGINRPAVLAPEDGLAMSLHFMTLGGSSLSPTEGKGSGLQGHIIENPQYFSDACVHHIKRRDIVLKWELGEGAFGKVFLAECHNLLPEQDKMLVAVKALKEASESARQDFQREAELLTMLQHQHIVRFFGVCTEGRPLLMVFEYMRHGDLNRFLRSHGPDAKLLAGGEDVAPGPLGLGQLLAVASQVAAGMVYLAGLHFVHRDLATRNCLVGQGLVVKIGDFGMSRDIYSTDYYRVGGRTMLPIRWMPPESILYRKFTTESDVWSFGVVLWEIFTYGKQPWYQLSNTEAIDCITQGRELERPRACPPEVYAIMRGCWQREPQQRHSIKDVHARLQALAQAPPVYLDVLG
For experiment [7], the target named is Luciferin 4-monooxygenase (Photinus pyralis) (UniProt P08659). Put plainly: Activation of firefly luciferase activity expressed in HEK293T cells after 6 hrs by luminescence assay. In kind it is cell-based.
Luciferin 4-monooxygenase (Photinus pyralis), sequence (P08659 whole entry, the tested form may be a part): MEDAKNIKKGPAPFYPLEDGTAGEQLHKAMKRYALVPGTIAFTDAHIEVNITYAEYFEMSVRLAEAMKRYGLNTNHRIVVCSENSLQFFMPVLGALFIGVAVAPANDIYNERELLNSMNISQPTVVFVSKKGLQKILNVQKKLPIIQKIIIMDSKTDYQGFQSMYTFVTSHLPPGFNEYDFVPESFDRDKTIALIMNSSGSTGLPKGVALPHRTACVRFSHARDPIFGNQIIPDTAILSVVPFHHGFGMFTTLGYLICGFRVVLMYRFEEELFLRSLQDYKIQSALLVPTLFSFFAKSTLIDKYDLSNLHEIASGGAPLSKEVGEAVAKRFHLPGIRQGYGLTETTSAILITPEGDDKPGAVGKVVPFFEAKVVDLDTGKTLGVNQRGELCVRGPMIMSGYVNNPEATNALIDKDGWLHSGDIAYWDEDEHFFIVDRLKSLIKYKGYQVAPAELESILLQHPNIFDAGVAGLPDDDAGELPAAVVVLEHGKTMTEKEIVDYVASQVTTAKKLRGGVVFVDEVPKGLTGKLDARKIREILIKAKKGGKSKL
The species entered for experiment [8] is Homo sapiens. Put plainly: Selectivity ratio of EC50 for RFP-fused TrkA receptor (unknown origin) expressed in HEK293T cells to EC50 for […] receptor (unknown origin) expressed in HEK293T cells. The class given is cell-based.
In experiment [9] the target is T1, BDNF/NT-3 growth factors receptor. Put plainly: Agonist activity at EGFP-fused TrkB receptor (unknown origin) expressed in HEK293T cells assessed as increase in ERK1/2 phosphorylation after 15 mins by Western blot analysis. The class given is cell-based.
Target sequence in this assay (Q16620 32-822 limits assumed): as the sequence (Q16620 32-822 limits assumed) above
The target in experiment [10] is BDNF/NT-3 growth factors receptor (Mus musculus) (UniProt P15209). Put plainly: Agonist activity at TrkB receptor in Swiss mouse primary cortical neurons assessed as increase in MAP2 expression after 72 hrs by Western blot analysis.
Experiment [11] shares this target. Nature of the experiment: Agonist activity at TrkB receptor in Swiss mouse primary cortical neurons assessed as increase in PSD95 expression after 72 hrs by Western blot analysis.
The target is the same in experiment [12]. Put plainly: Agonist activity at TrkB receptor in Swiss mouse primary cortical neurons transfected with AAV2 Tdtomato assessed as increase in dendritic arborization at 100 nM after 72 hrs by confocal microscopic analysis.

Activity calls are given as the source filed them. No cut-off for these calls is given here. Some results are limits rather than exact numbers.

For the compound `COc1ccc(-c2cc3cccc(O)c3c(=O)o2)cc1`, the outcome in [1], in experiment [3] and in [12] was Active. In addition, the Activity result in [2], in experiment [4], in experiment [9] and in experiment [10] was “Dose-dependent effect” throughout. For the same compound, the EC50 (commonly the midpoint of the concentration-response curve) worked out at 0.0872 µM in experiment [5] and 0.667 µM in [6]. Besides, the result in experiment [7] and in experiment [11] was inactive. Moreover, the Ratio EC50 in [8] is above 7.
In the case of `O=c1oc(-c2ccc3c(c2)OCO3)cc2cccc(O)c12`, the result in [1] was Active.
